Like-named read-outs stand apart in the source and are kept apart here.
Assays:
Mice = details: drug alone (−) or with MSC (+)
[1] = tested on: FaDu squamous cell carcinoma of the head and neck xenografts; assay: Cure rate / antitumor activity in nude mice bearing FaDu head and neck xenografts; assay type: in vivo
Procedure: (§1) 5-Methylselenocysteine (MSC). Two schedules were evaluated: 1) in combination with irinotecan, MSC (0.2 mg/mouse/d×28) was administered orally for 28 days with the first dose administered daily for seven days prior to the weekly drug administration and 2) in combination with other drugs, MSC was administered orally (0.2 mg/mouse/d×14) daily for 14 days with the first dose administered daily for seven days prior to the single i.v. administration of taxol, CDDP, Dox, taxotere and cyclophosphamide.
(§2) Anticancer drug administration. The anticancer drugs administration schedule was as follows. • i. Irinotecan (CPT-11), weekly i.v. push for four (4) weeks, • ii. Taxol, single i.v. push, • iii. Cisplatin (CDDP), single i.v. push. • iv. Doxorubin (Dox), single i.v. push. • v. Cyclophosphamide, single i.v. push. • vi. Oxaliplatin, single i.v. push • vii. Taxotere, single i.v. push
Tumor Xenografts. […] The following tumor xenografts were established. • i. HCT-8: poorly-differentiated colon carcinoma, expressing wild type p53 • ii. HT-29: well-differentiated colon carcinoma expressing mutant p53 • iii. A253: well-differentiated squamous cell carcinoma of the head and neck (SCCHN) expressing no p53 • iv. FaDu: poorly-differentiated squamous cell carcinoma of the head and neck (SCCHN) expressing mutant p53 […]
(§3) This example describes the modulation of the antitumor activity of anticancer drugs by MSC in mice bearing human tumors. […] To determine whether modulation of the therapeutic efficacy and cure of irinotecan by MSC is drug specific, the antitumor activity of drugs, representing different classes and mechanisms of action were evaluated alone and in combination with non-toxic doses and schedules of MSC (0.2 mg/mouse/d×14) in xenografts bearing human A253 and FaDu (SCCHN) tumors (FIG. 5). The data in FIG. 5 represent the use of the MTD doses of cisplatin (8 mg/kg×1), cyclophosphamide (100 mg/kg×1), taxol (35 mg/kg ×1.) and doxorubicin (10 mg/kg×1).
In mice, MSC was orally administered at 0.2 mg/mouse/d with the first daily dose administered seven days prior to single i.v. administration of drug and continuous for additional seven days for a total MSC treatment of 14 days.

[2] = tested on: A253 squamous cell carcinoma of the head and neck xenografts; assay: Cure rate / antitumor activity in nude mice bearing A253 head and neck xenografts; assay type: in vivo
Procedure: as §1, §2
Tumor Xenografts. […] The following tumor xenografts were established. • i. HCT-8: poorly-differentiated colon carcinoma, expressing wild type p53 • ii. HT-29: well-differentiated colon carcinoma expressing mutant p53 • iii. A253: well-differentiated squamous cell carcinoma of the head and neck (SCCHN) expressing no p53 • iv. FaDu: poorly-differentiated squamous cell carcinoma of the head and neck (SCCHN) expressing mutant p53
This example describes the comparative antitumor activity of MSC and SLM in combination with the maximum tolerated dose of irinotecan. […] As an illustration, MSC and SLM were used in combination with irinotecan. The results, shown in FIG. 3, represent a comparative evaluation of the effect of MSC and SLM (0.2 mg/mouse/d×28) on the antitumor activity of irinotecan (100 mg/kg/wk×4).
To determine whether therapeutic synergy achieved with irinotecan in xenografts is specific for MSC, the antitumor activity of irinotecan with and without two selenium-containing compounds, MSC and SLM were compared in xenografts bearing A253 (SCCHN) tumors for the […] (200 mg/kg/wk×4). The data compare the antitumor activity of MSC with SLM in combination with irinotecan (200 mg/kg/wk×4).
as §3

Rats = details: oxaliplatin 10 mg/kg single i.v.; alone or with MSC […]
Procedure: In this example, the effect of selenium on the antitumor activity of oxaliplatin and doxorubicin was tested as follows. The effect of selenium was determined on the antitumor activity of oxaliplatin in rats bearing advanced ward colorectal carcinoma (3000 mg). Rats received MSC (0.75 mg/rat/d) or saline fourteen days prior to single i.v. injection of oxaliplatin of 5 and 10 mg/kg with continuous daily oral administration of MSC for additional seven days for a total of 21 days of MSC and oxaliplatin is administered on day 14 after saline and MSC treatment.

in vivo [3] = details: nude, mouse
in vivo [4] = details: rat
nude mice = details: taxotere 100 mg/kg single i.v.
Procedure: Taxotere was administered to nude mice at non-toxic (60 mg/kg) or toxic (100 mg/kg) dose by a single i.v. injection and MSC was administered by oral route daily for 14 days with the first dose of MSC started before taxotere treatment.

rat = assay: Reduction of doxorubicin toxicity by selenium compounds in rats; assay type: in vivo; details: 0.5 mg/day/rat daily for 14 days, started 7 days prior to doxorubicin; data not shown
[5] = Table 3 first column pair (head printed 'FaUra'), drug dose mg/kg and MSC mg/mouse/day in parentheses of Treatment
[6] = Table 3 first column pair (head printed 'FaUra'), drug dose mg/kg and MSC mg/mouse/day in parentheses of Treatment, schedules per footnote
[7] = Table 3 (A253), drug dose mg/kg and MSC mg/mouse/day in parentheses of Treatment

Row | Compound | MTD (in vivo [3]) [mg/kg] | PR (%) (partial tumor regression, >50% tumor reduction) [1, 5] | CR (%) (complete tumor regression) [1, 6] | CR (%) (complete tumor regression) [2, 7] | PR (%) (partial tumor regression, >50% tumor reduction) [2, 7] | other results
1 | O=C1[O][Pt]2([NH][C@@H]3CCCC[C@H]3[NH]2)[O]C1=O [Oxaliplatin, oxaliplatin] | – | – | – | – | – | MTD (mg/kg) Mice (Mice): 7.5 mg/kg; CR (%) (complete tumor regression) ([1]; mouse, in vivo): 0%; PR (%) (partial tumor regression, >50% tumor reduction) ([1]; mouse, in vivo): 0%; CR (%) (complete tumor regression) ([2]; mouse, in vivo): 0%; PR (%) (partial tumor regression, >50% tumor reduction) ([2]; mouse, in vivo): 0%; toxicity (weight loss and diarrhea) (Rats): toxic
2 | CC(=O)O[C@H]1C(=O)[C@@]2(C)[C@H]([C@H](OC(=O)c3ccccc3)[C@]3(O)C[C@H](OC(=O)[C@H](O)[C@@H](NC(=O)c4ccccc4)c4ccccc4)C(C)=C1C3(C)C)[C@]1(OC(C)=O)CO[C@@H]1C[C@@H]2O [Taxol] | 35 | 0 | 0 | 0 | 0 | MTD (in vivo [4]): 50 mg/kg
3 | CC(=O)O[C@@]12CO[C@@H]1C[C@H](O)[C@@]1(C)C(=O)[C@H](O)C3=C(C)[C@@H](OC(=O)[C@H](O)[C@@H](NC(=O)OC(C)(C)C)c4ccccc4)C[C@@](O)([C@@H](OC(=O)c4ccccc4)[C@H]21)C3(C)C [Taxotere] | 60 | 40 | 0 | – | – | animals cured of their tumors ([1]; FaDu, taxotere 60 mg/kg single i.v., alone or with MSC 0.2 mg/mouse/d × 14): insensitive; CR (%) (complete tumor regression) [2]: 0%; PR (%) (partial tumor regression, >50% tumor reduction) [2]: 20%; animals cured of their tumors ([2]; A253, taxotere 60 mg/kg single i.v., alone or with MSC 0.2 mg/mouse/d × 14): insensitive; lethality (nude mice): 40%
4 | CC[C@@]1(O)C(=O)OCc2c1cc1n(c2=O)Cc2cc3c(CN(C)C)c(O)ccc3nc2-1 [Topotecan, topotecan] | – | 0 | 0 | 0 | 0 | –
5 | CCCCCOC(=O)Nc1nc(=O)n([C@@H]2O[C@H](C)[C@@H](O)[C@H]2O)cc1F [Xeloda] | – | – | 0 | 0 | 0 | –
6 | O=[Se](O)O [sodium selenite] | – | – | – | – | – | reducing toxicity of doxorubicin (rat): not sodium selenite

Source: patent US20060258697A1, “Method of augmenting the antitumor activity of anticancer agents” (priority 2003, published 2006)
